Source: ChEMBL document CHEMBL1140757, “Studies toward the structural optimization of new brazilizone-related trypanocidal 1,3,4-thiadiazole-2-arylhydrazone derivatives” (Bioorg Med Chem, 2008)

System: Trypanosoma cruzi
Assay: Trypanocidal activity against Trypanosoma cruzi Y trypomastigotes assessed as parasite lysis
Assay type: functional, organism-based

SMILES | IC50 [µM]
COc1cc(/C=N/Nc2nnc(-c3ncc([N+](=O)[O-])n3C)s2)cc([N+](=O)[O-])c1O | 19
Cn1c([N+](=O)[O-])cnc1-c1nnc(N/N=C/c2cccc(Br)c2)s1 | 728
Cn1c([N+](=O)[O-])cnc1-c1nnc(N/N=C/c2ccccc2[N+](=O)[O-])s1 | 726
Cn1c([N+](=O)[O-])cnc1-c1nnc(N/N=C/c2ccccc2Br)s1 | 900
Cn1c([N+](=O)[O-])cnc1-c1nnc(N/N=C/c2cccc(Cl)c2Cl)s1 | 1210
Cn1c([N+](=O)[O-])cnc1-c1nnc(N/N=C/c2cccc([N+](=O)[O-])c2)s1 | 48.2
Cn1c([N+](=O)[O-])cnc1-c1nnc(N/N=C/c2cccc(O)c2)s1 | 73.9
Cn1c([N+](=O)[O-])cnc1-c1nnc(N/N=C/c2ccccc2Cl)s1 | 140
Cn1c([N+](=O)[O-])cnc1-c1nnc(N/N=C/c2cccc(Cl)c2)s1 | 187
Cn1c([N+](=O)[O-])cnc1-c1nnc(N/N=C/c2cccc(O)c2O)s1 | 309
Cn1c([N+](=O)[O-])cnc1-c1nnc(N/N=C/c2ccc(Cl)cc2Cl)s1 | 794
Cn1c([N+](=O)[O-])cnc1-c1nnc(N/N=C/c2cc(O)ccc2O)s1 | 140
